Structures can show the parent of a compound that is named as a salt. Where two headings read alike, the source gives them in different places.
What was measured:
[1] = molecular target: T1, HIV-1 reverse transcriptase (Human immunodeficiency virus type 1 group M subtype B, UniProt P04585); experiment: Screening for the in vitro activity against the HIV-1 reverse transcriptase; assay type: biochemical
T1 construct: purchased
Procedure: Principle of the test: The template to which the HIV-1 reverse transcriptase interacts was covered onto the enzyme-lined template. In the optimal reaction conditions and system, HIV-1 RT will put the substrate comprising Biotin-dUTP onto the reaction template. The activity of the enzyme was measured as the amount of the integrating Biotin-dUTP in the reaction by using streptavidin-labeled horseradish peroxidase. Adding the sample to the reaction system can identify inhibitor of the enzyme.
1. HIV-1 RT: commercially available.
2. Treatment of the samples: Before use, the sample was dissolved in DMSO at a suitable concentration, then serially diluted (5×) with double distilled water, five serial dilutions per sample.
4. Methods: The diluted sample was added into the reaction buffer containing Biotin-dUTP and the genetic engineered target enzyme, and incubated in the optimal reaction conditions. A streptavidin-labeled horseradish peroxidase was added to visual the system, and OD450 was measured.

MDCK (dog kidney) cells = experiment: Toxicity TC50 of the samples in MDCK cells (influenza screening); conditions: concentration of 50% toxicity, given as dilution of the stock solution
[2] = system: HL-60 human promyelocytic leukemia; experiment: In vitro inhibition rate to tumor cells (MTT), HL-60; assay type: cell-based; conditions: for inhibition at 50 µg/mL: Homo sapiens, HL-60, 50 μg/ml, read-out: inhibition rate, Results (%) HL-60; for inhibition rate, Results (%) HL-60: 50 μg/ml
Hepatitis B virus (HBV) = assay type: cell-based
[3] = system: LLC mouse Lewis lung carcinoma; experiment: In vitro inhibition rate to tumor cells (MTT), LLC; assay type: cell-based; conditions: 50 μg/ml; for inhibition at 50 µg/mL: Mus musculus, Lewis lung carcinoma
[4] = molecular target: T2, HIV-1 proteinase (HIV-1 PR) (Human immunodeficiency virus type 1 group M subtype B, UniProt P04585); experiment: Screening for in vitro activity against HIV-1 proteinase; assay type: biochemical
T2 construct: HIV-1 proteinase digests the fluorescent-labeled substrate; purchased
Procedure: Principle of the test: HIV-1 proteinase digests the fluorescent-labeled substrate in an optimal reaction condition and system. The activity of the enzyme can be reflected by the fluorescent intensity in the product of the enzyme reaction. Adding a sample into the reaction system can be used for screening the inhibitor of the enzyme.
1. HIV-1 PR: commercially available, stored at −85° C.
2. Treatment of the samples: Before use, sample was dissolved in DMSO at a suitable concentration, then serially diluted (5×) with double distilled water, five serial dilutions per sample.
3. Positive control: indinavir, purchased from […].
4. Methods: The diluted sample was added into the reaction buffer containing the fluorescent-labeled substrate. Then the genetic engineered target enzyme was added, and incubated in the optimal reaction condition. The fluorescent value was measured with a FLUO star Galaxy luminoscope.

[5] = system: Bel-7402 human hepatic carcinoma; experiment: In vitro inhibition rate to tumor cells (MTT), Bel-7402; assay type: cell-based; conditions: for inhibition at 50 µg/mL: Homo sapiens, Bel-7402, 50 μg/ml, read-out: inhibition rate, Results (%) Bel-7402; for inhibition rate, Results (%) Bel-7402: 50 μg/ml
[6] = system: Hela human cervical carcinoma; experiment: In vitro inhibition rate to tumor cells (MTT), Hela; assay type: cell-based; conditions: Homo sapiens, HeLa, 50 μg/ml, read-out: inhibition rate, Results (%) Hela
[7] = system: A-549 human lung adenocarcinoma; experiment: In vitro inhibition rate to tumor cells (MTT), A-549; assay type: cell-based; conditions: for inhibition at 50 µg/mL: Homo sapiens, A549, 50 μg/ml, read-out: inhibition rate, Results (%) A-549
[8] = system: U-937 human histocytic lymphoma; experiment: In vitro inhibition rate to tumor cells (MTT), U-937; assay type: cell-based; conditions: for inhibition at 50 µg/mL: Homo sapiens, U-937, 50 μg/ml, read-out: inhibition rate, Results (%) U-937; for inhibition rate, Results (%) U-937: 50 μg/ml
[9] = system: SMMC-7721 human hepatic carcinoma; experiment: In vitro inhibition rate to tumor cells (MTT), SMMC-7721; assay type: cell-based; conditions: for inhibition at 50 µg/mL: Homo sapiens, SMMC-7721, 50 μg/ml, read-out: inhibition rate, Results (%) SMMC-7721
[10] = system: MCF-7 human mammary adenocarcinoma; experiment: In vitro inhibition rate to tumor cells (MTT), MCF-7; assay type: cell-based; conditions: Homo sapiens, MCF7, 50 μg/ml, read-out: inhibition rate, Results (%) MCF-7
[11] = molecular target: T3, HIV-1 integrase (HIV-1 IN) (Human immunodeficiency virus type 1 group M subtype B, UniProt P04585); experiment: Screening for the activity against HIV-1 integrase; assay type: biochemical
T3 construct: a purified HIV-1 integrase was added into each well; purchased
Procedure: Principle of the test: A synthetic oligonucleotide of 30 nt was used as the donor substrate. A synthetic oligonucleotide of 20 nt was used as the target substrate. A 96-well plate was covered by the donor substrate, and a purified HIV-1 integrase was added into each well. ELISA was performed to measure the product of the target DNA chain transfer. A biotin-labeled alkali phosphatase was used to visual the system. OD value was measured by an Enzyme-linked Detector. Add a sample into the reaction system for screening the inhibitor of the enzyme.
1. HIV-1 IN: commercially available.
2. Treatment of the samples: Before use, the sample was dissolved in water or DMSO at a suitable concentration, then serially diluted (5×), four serial dilutions per sample. The stock solutions of two samples were 100-fold diluted with DMSO, then 5-fold diluted, four serial dilutions per sample. Positive control: S-y, provided by Shanghai Organic Chemistry Institute.
3. The donor substrate and target substrate: synthesized by Shanghai Biological Engineering Company (Shanghai Shenggong).
4. Methods: The diluted sample was added into a 96-well plate covered by the donor substrate, and then added into the reaction buffer containing the genetic engineered target enzyme and biotin-target substrate, incubated in the optimal reaction conditions. A biotin-labeled alkali phosphatase was used to visual the system to determine the absorbance at 450 nm (OD450).

HepG2 cells = experiment: Cell status of HepG2 cells treated with sample (HBV screening); assay type: cell-based; conditions: 200 μg/ml, HepG2, four days after infection

## C=C1CC2(OC(=O)CCC)OC3(CC2C(C)C)C(C)CCC13 (centres unmarked) [Compound 2, Curcumol butyrate]
[1]; 120 ug/ml
  inhibition rate of HIV-1 reverse transcriptase: 60%
[1]; IC50, initial concentration 1/150 of the stock solution
  IC50: < 392 µM
MDCK (dog kidney) cells
  TC50: 1/12150 of the stock solution
[2]; Table 1
  inhibition at 50 µg/mL: 12.3%
[2]; Table 2 (repeated screening)
  inhibition at 50 µg/mL: 18%
Hepatitis B virus (HBV); 200 μg/ml, decrease of HBeAg relative to positive control
  (Value of the positive control - Measured Value) Value of the positive control × 100%: 68.34%
Hepatitis B virus (HBV); 200 μg/ml, supernatant four days after infection, positive control 1.917, negative 0.057
  OD450 of HBeAg: 0.607
Hepatitis B virus (HBV); primary screening, HBV e antigen, HepG2, 13 samples
  activity against HBV (in words): had the activity against HBV
[3]; Table 1
  inhibition at 50 µg/mL: 2.98%
[3]; Table 2 (repeated screening)
  inhibition at 50 µg/mL: 0.32%
[4]; 0.08 μg/ml, read-out: Inhibition rate
  inhibition at 0.08 µg/mL: 4.13%
[4]; 0.40 μg/ml, read-out: Inhibition rate
  inhibition at 0.4 µg/mL: 8.64%
[4]; 2.0 μg/ml, read-out: Inhibition rate
  inhibition at 2 µg/mL: 2.98%
[4]; 10 μg/ml, read-out: Inhibition rate
  inhibition at 10 µg/mL: 12.2%
[4]; IC50, five 5× serial dilutions from 50 μg/ml
  IC50: > 163 µM
[4]; read-out: Inhibition rate, 50 μg/ml
  inhibition at 50 µg/mL: 12.7%
[5]; Table 1
  inhibition at 50 µg/mL: 23.3%
[5]; Table 2 (repeated screening)
  inhibition at 50 µg/mL: 12.8%
[6]; Table 1
  inhibition at 50 µg/mL: 70.6%
[6]; Table 2 (repeated screening)
  inhibition at 50 µg/mL: 75.2%
[7]; Table 1
  inhibition at 50 µg/mL: 4.93%
[7]; Table 2 (repeated screening)
  inhibition at 50 µg/mL: 9.23%
[8]; Table 1
  inhibition at 50 µg/mL: 71.2%
[8]; Table 2 (repeated screening)
  inhibition at 50 µg/mL: 70.3%
[9]; Table 1
  inhibition at 50 µg/mL: 12.3%
[9]; Table 2 (repeated screening)
  inhibition at 50 µg/mL: 14.7%
[10]; Table 1
  inhibition at 50 µg/mL: 46%
[10]; Table 2 (repeated screening)
  inhibition at 50 µg/mL: 41.8%
[11]
  IC50: 116 µM
HepG2 cells
  Cell status: Normal

## CC(C)C1CC23OC1(O)C/C(=C\Nc1ccc(O)cc1)C2CCC3C (centres unmarked) (as salt: hydrochloride) [Compound 6, Curcumol p-hydroxy aniline hydrochloride]
other
  melting point: 147.5 to 149.5 °C

## CC(C)C1CC23OC1(O)CC(=CN1CCNCC1)C2CCC3C (centres unmarked) (as salt: hydrochloride) [Compound 8, Curcumol piperazine hydrochloride]
other
  melting point: 150 to 152 °C

## CC(C)C1CC23OC1(O)C/C(=C\NC(C)(C)C)C2CCC3C (centres unmarked) [Compound 15, Curcumol t-butyl amine]
[2]; Table 1
  inhibition rate, Results (%) HL-60: 8.23%
[2]; Table 2 (repeated screening)
  inhibition rate, Results (%) HL-60: 2.98%
other
  melting point: 79 to 80 °C
[3]; Table 1
  inhibition rate, Results (%) LLC: −11.83%
[3]; Table 2 (repeated screening)
  inhibition rate, Results (%) LLC: −10.12%
[5]; Table 1
  inhibition rate, Results (%) Bel-7402: 32.98%
[5]; Table 2 (repeated screening)
  inhibition rate, Results (%) Bel-7402: 31.20%
[6]; Table 1
  inhibition at 50 µg/mL: 70%
[6]; Table 2 (repeated screening)
  inhibition at 50 µg/mL: 71.4%
[7]; 50 μg/ml, Table 1
  inhibition rate, Results (%) A-549: 17.43%
[7]; Table 2 (repeated screening)
  inhibition at 50 µg/mL: 12.3%
[8]; Table 1
  inhibition rate, Results (%) U-937: 57.32%
[8]; Table 2 (repeated screening)
  inhibition rate, Results (%) U-937: 50.12%
[9]; 50 μg/ml, Table 2 (repeated screening)
  inhibition rate, Results (%) SMMC-7721: −8.60%
[9]; Table 1
  inhibition at 50 µg/mL: -2.5%
[10]; Table 1
  inhibition at 50 µg/mL: 65.3%
[10]; Table 2 (repeated screening)
  inhibition at 50 µg/mL: 60.1%

## CC(C)C1CC23OC1(O)C/C(=C\NC(C)(C)C)C2CCC3C (centres unmarked) (as salt: hydrochloride) [Compound 16, Curcumol t-butyl amine hydrochloride]
other
  melting point: 115 to 116 °C

— US7700584B2 (Hangzhou Minsheng Pharmaceuticals Co., Ltd., priority 2004, dated 2010)
